Measured values published in PubChem BioAssay AID256 (DTP/NCI, 2004).
Values joined by “and” are separate entries in the source; they are usually repeats but may differ in a detail not shown here. Equal entries are not always repeated. Inconclusive results and toxic doses are left out. Rule for the calls: active = survival T/C of 150% or more; inactive = T/C below 125% in these data.

Tested on: CD2F1 mice, L1210 leukemia ip, survival T/C
Test: NCI In Vivo Anticancer Drug Screen. Data for tumor model L1210 Leukemia (intraperitoneal) in CD2F1 (CDF1) mice
Settings: higher = longer survival
Summary of the method: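 Vehicle-treated tumor-bearing mice served as controls (C) for compound-treated mice (T). Reported figure is T divided by C.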

[1] = endpoint: mean survival time, dose: 100.0 mg/kg/injection, schedule: Q04DX003 (ip), vehicle: saline with Tween-80
[2] = endpoint: mean survival time, dose: 200.0 mg/kg/injection, schedule: Q04DX003 (ip), vehicle: saline with Tween-80
[3] = endpoint: mean survival time, dose: 400.0 mg/kg/injection, schedule: Q04DX003 (ip), vehicle: saline with Tween-80
[4] = endpoint: mean survival time, dose: 100.0 mg/kg/injection, schedule: Q01DX001 (ip), vehicle: saline with Tween-80
[5] = endpoint: mean survival time, dose: 200.0 mg/kg/injection, schedule: Q01DX001 (ip), vehicle: saline with Tween-80
[6] = endpoint: mean survival time, dose: 400.0 mg/kg/injection, schedule: Q01DX001 (ip), vehicle: saline with Tween-80
[7] = endpoint: mean survival time, dose: 25.0 mg/kg/injection, schedule: Q04DX003 (ip), vehicle: saline with Tween-80
[8] = endpoint: mean survival time, dose: 50.0 mg/kg/injection, schedule: Q04DX003 (ip), vehicle: saline with Tween-80

Measured: T/C

CC(C)C1CCC(C)C23CCC(=O)C2C13 (centres undefined)
inactive: endpoint: mean survival time, dose: 100.0 mg/kg/injection, schedule: Q01DX001 (ip), vehicle: acetone 100 % of control | endpoint: mean survival time, dose: 200.0 mg/kg/injection, schedule: Q01DX001 (ip), vehicle: acetone 95 % of control | endpoint: mean survival time, dose: 400.0 mg/kg/injection, schedule: Q01DX001 (ip), vehicle: acetone 110 % of control

CN(Cc1ccc(C#N)cc1)N=Nc1ccc(C(=O)O)cc1
inactive: endpoint: mean survival time, dose: 25.0 mg/kg/injection, schedule: Q01DX009 (ip), vehicle: other 106 % of control | endpoint: mean survival time, dose: 50.0 mg/kg/injection, schedule: Q01DX009 (ip), vehicle: other 87 % of control | endpoint: mean survival time, dose: 100.0 mg/kg/injection, schedule: Q01DX009 (ip), vehicle: other 106 % of control | endpoint: mean survival time, dose: 200.0 mg/kg/injection, schedule: Q01DX009 (ip), vehicle: other 102 % of control | endpoint: mean survival time, dose: 400.0 mg/kg/injection, schedule: Q01DX009 (ip), vehicle: other 120 % of control

[Cl][Pt+2][Cl].[NH-]c1ccc([N+](=O)[O-])cc1[NH-]
inactive: endpoint: mean survival time, dose: 2.5 mg/kg/injection, schedule: Q01DX009 (ip), vehicle: saline with Tween-80 103 % of control | endpoint: mean survival time, dose: 5.0 mg/kg/injection, schedule: Q01DX009 (ip), vehicle: saline with Tween-80 102 % of control | endpoint: mean survival time, dose: 10.0 mg/kg/injection, schedule: Q01DX009 (ip), vehicle: saline with Tween-80 103 % of control | endpoint: mean survival time, dose: 20.0 mg/kg/injection, schedule: Q01DX009 (ip), vehicle: saline with Tween-80 105 % of control and 107 % of control | endpoint: mean survival time, dose: 40.0 mg/kg/injection, schedule: Q01DX009 (ip), vehicle: saline with Tween-80 106 % of control and 111 % of control | endpoint: mean survival time, dose: 80.0 mg/kg/injection, schedule: Q01DX009 (ip), vehicle: saline with Tween-80 96 % of control

CCCCCCCCCCCSCCCCCCCCCCC
inactive: endpoint: mean survival time, dose: 100.0 mg/kg/injection, schedule: Q01DX009 (ip), vehicle: saline with Tween-80 104 % of control | [1] 98 % of control | endpoint: mean survival time, dose: 200.0 mg/kg/injection, schedule: Q01DX009 (ip), vehicle: saline with Tween-80 103 % of control | [2] 101 % of control | endpoint: mean survival time, dose: 400.0 mg/kg/injection, schedule: Q01DX009 (ip), vehicle: saline with Tween-80 103 % of control | [3] 98 % of control

Cc1c2c(O)c(O)c(O)cc2c[n+]2ccccc12
inactive: endpoint: mean survival time, dose: 50.0 mg/kg/injection, schedule: Q01DX009 (ip), vehicle: saline 101 % of control

Cc1cn(C2CC(O)C(COC(c3ccccc3)(c3ccccc3)c3ccc(OCC(=O)O)cc3)O2)c(=O)[nH]c1=O (centres undefined)
inactive: endpoint: mean survival time, dose: 12.5 mg/kg/injection, schedule: Q01DX005 (ip), vehicle: distilled water + Tween-80 100 % of control | endpoint: mean survival time, dose: 25.0 mg/kg/injection, schedule: Q01DX005 (ip), vehicle: distilled water + Tween-80 97 % of control | endpoint: mean survival time, dose: 50.0 mg/kg/injection, schedule: Q01DX005 (ip), vehicle: distilled water + Tween-80 96 % of control | endpoint: mean survival time, dose: 100.0 mg/kg/injection, schedule: Q01DX005 (ip), vehicle: distilled water + Tween-80 102 % of control | endpoint: mean survival time, dose: 200.0 mg/kg/injection, schedule: Q01DX005 (ip), vehicle: distilled water + Tween-80 94 % of control

CN1c2ccccc2C2CC(CC#N)CC(=O)C21 (centres undefined)
inactive: [4] 96 % of control | [5] 93 % of control | [6] 95 % of control

COc1cc2c(c(OC)c1OC)-c1ccc(OC)c(=O)cc1[C@@H](N)CC2
inactive: endpoint: median survival time, dose: 1.5 mg/kg/injection, schedule: Q01DX009 (ip), vehicle: saline 120 % of control

Br/C1=C/CCCCCC1
inactive: endpoint: mean survival time, dose: 37.5 mg/kg/injection, schedule: Q01DX009 (ip), vehicle: saline 94 % of control | endpoint: mean survival time, dose: 75.0 mg/kg/injection, schedule: Q01DX009 (ip), vehicle: saline 94 % of control | endpoint: mean survival time, dose: 150.0 mg/kg/injection, schedule: Q01DX009 (ip), vehicle: saline 104 % of control

c1ccc2nc3c(nc2c1)[nH]c1ccccc13
inactive: [4] 100 % of control | [5] 92 % of control | [6] 89 % of control

COC(=O)CCC(C)(c1ccc(O)cc1)c1ccc(O)cc1
inactive: [1] 103 % of control | [2] 97 % of control | [3] 91 % of control

O=C(O)/C(=C\c1ccc(Br)cc1)c1ccc(C(F)(F)F)cc1[N+](=O)[O-]
inactive: endpoint: mean survival time, dose: 75.0 mg/kg/injection, schedule: Q04DX003 (ip), vehicle: saline 89 % of control | endpoint: mean survival time, dose: 150.0 mg/kg/injection, schedule: Q04DX003 (ip), vehicle: saline 101 % of control | endpoint: mean survival time, dose: 300.0 mg/kg/injection, schedule: Q04DX003 (ip), vehicle: saline 100 % of control

O=C(Oc1ccc(OC(=O)c2ccccc2)c2c1C(=O)C(CBr)=C(CBr)C2=O)c1ccccc1
inactive: endpoint: mean survival time, dose: 0.75 mg/kg/injection, schedule: Q01DX009 (ip), vehicle: water 93 % of control | endpoint: mean survival time, dose: 1.5 mg/kg/injection, schedule: Q01DX009 (ip), vehicle: water 101 % of control | endpoint: mean survival time, dose: 3.0 mg/kg/injection, schedule: Q01DX009 (ip), vehicle: water 93 % of control and 97 % of control | endpoint: mean survival time, dose: 6.0 mg/kg/injection, schedule: Q01DX009 (ip), vehicle: water 93 % of control and 95 % of control | endpoint: mean survival time, dose: 12.0 mg/kg/injection, schedule: Q01DX009 (ip), vehicle: water 93 % of control | endpoint: mean survival time, dose: 12.5 mg/kg/injection, schedule: Q01DX009 (ip), vehicle: water 86 % of control | endpoint: mean survival time, dose: 24.0 mg/kg/injection, schedule: Q01DX009 (ip), vehicle: water 90 % of control | endpoint: mean survival time, dose: 25.0 mg/kg/injection, schedule: Q01DX009 (ip), vehicle: water 91 % of control | endpoint: mean survival time, dose: 50.0 mg/kg/injection, schedule: Q01DX009 (ip), vehicle: water 87 % of control | endpoint: mean survival time, dose: 100.0 mg/kg/injection, schedule: Q01DX009 (ip), vehicle: water 100 % of control | endpoint: mean survival time, dose: 200.0 mg/kg/injection, schedule: Q01DX009 (ip), vehicle: water 86 % of control

O=[N+]([O-])c1ccc(N/N=C/C(Br)(Br)Br)c([N+](=O)[O-])c1
inactive: [7] 102 % of control | [8] 100 % of control

C[n+]1cccc(NC(=O)COc2ccc(Cl)c(Cl)c2)c1
inactive: [7] 106 % of control | [8] 104 % of control | [1] 97 % of control and 104 % of control

CC(C)(C)C1CC=CCC1 (centres undefined)
inactive: [1] 98 % of control | [2] 98 % of control

CCCCC(C)(C(=O)OCC)C(=O)OCC
inactive: endpoint: mean survival time, dose: 12.5 mg/kg/injection, schedule: Q01DX009 (ip), vehicle: Klucel (hydroxypropylcellulose) (HPC) 98 % of control | endpoint: mean survival time, dose: 25.0 mg/kg/injection, schedule: Q01DX009 (ip), vehicle: Klucel (hydroxypropylcellulose) (HPC) 98 % of control | endpoint: mean survival time, dose: 50.0 mg/kg/injection, schedule: Q01DX009 (ip), vehicle: Klucel (hydroxypropylcellulose) (HPC) 108 % of control | endpoint: mean survival time, dose: 100.0 mg/kg/injection, schedule: Q01DX009 (ip), vehicle: Klucel (hydroxypropylcellulose) (HPC) 98 % of control | endpoint: mean survival time, dose: 200.0 mg/kg/injection, schedule: Q01DX009 (ip), vehicle: Klucel (hydroxypropylcellulose) (HPC) 98 % of control | endpoint: mean survival time, dose: 400.0 mg/kg/injection, schedule: Q01DX009 (ip), vehicle: Klucel (hydroxypropylcellulose) (HPC) 106 % of control

OC1COC(c2cnn(-c3ccccc3)n2)C1O (centres undefined)
inactive: endpoint: median survival time, dose: 12.5 mg/kg/injection, schedule: Q01DX005 (ip), vehicle: water 105 % of control and 110 % of control | endpoint: median survival time, dose: 25.0 mg/kg/injection, schedule: Q01DX005 (ip), vehicle: water 103 % of control | endpoint: median survival time, dose: 50.0 mg/kg/injection, schedule: Q01DX005 (ip), vehicle: water 105 % of control and 103 % of control | endpoint: median survival time, dose: 100.0 mg/kg/injection, schedule: Q01DX005 (ip), vehicle: water 103 % of control and 104 % of control | endpoint: median survival time, dose: 200.0 mg/kg/injection, schedule: Q01DX005 (ip), vehicle: water 100 % of control and 103 % of control | endpoint: median survival time, dose: 400.0 mg/kg/injection, schedule: Q01DX005 (ip), vehicle: water 107 % of control

O=c1c2ccccc2sc2c1ccc1ccccc12
inactive: [4] 100 % of control | [5] 101 % of control | [6] 94 % of control

CCSC#N
inactive: endpoint: mean survival time, dose: 2.5 mg/kg/injection, schedule: Q01DX009 (ip), vehicle: Klucel (hydroxypropylcellulose) (HPC) 98 % of control | endpoint: mean survival time, dose: 5.0 mg/kg/injection, schedule: Q01DX009 (ip), vehicle: Klucel (hydroxypropylcellulose) (HPC) 102 % of control | endpoint: mean survival time, dose: 10.0 mg/kg/injection, schedule: Q01DX009 (ip), vehicle: Klucel (hydroxypropylcellulose) (HPC) 102 % of control

COc1ccc2nc3cc(Cl)ccc3c(NCCC[N+](C)(C)CCCCCCCCCCCCCCCC[N+](C)(C)CCCNc3c4ccc(Cl)cc4nc4ccc(OC)cc34)c2c1
inactive: endpoint: mean survival time, dose: 1.56 mg/kg/injection, schedule: Q01DX009 (ip), vehicle: other 96 % of control | endpoint: mean survival time, dose: 3.13 mg/kg/injection, schedule: Q01DX009 (ip), vehicle: other 94 % of control | endpoint: mean survival time, dose: 6.25 mg/kg/injection, schedule: Q01DX009 (ip), vehicle: other 105 % of control

CC1(C2CC(=O)OC2=O)OCCO1 (centres undefined)
inactive: endpoint: mean survival time, dose: 50.0 mg/kg/injection, schedule: Q01DX001 (ip), vehicle: saline 96 % of control | endpoint: mean survival time, dose: 100.0 mg/kg/injection, schedule: Q01DX001 (ip), vehicle: saline 102 % of control | endpoint: mean survival time, dose: 200.0 mg/kg/injection, schedule: Q01DX001 (ip), vehicle: saline 93 % of control
